Source: paper PMC10815500, “Design of Two New Sulfur Derivatives of Perezone: In Silico Study Simulation Targeting PARP-1 and In Vitro Study Validation Using Cancer Cell Lines” (International Journal of Molecular Sciences, 2024)
Read-outs that look alike come from different tables or passages of the source.

What was measured:
MDA-MB-231 = test: MTT cytotoxic assay, MDA-MB-231 cells; type: cell-based; settings: Homo sapiens, cancer cell line, 48 h, read-out: Inhibitory concentration (IC50) MDA-MB-231
Description: (§1) At the end of this time, 20 µL of the MTT solution (5 mg/mL) was added to each well and incubated for 4 h in the dark at 37 °C and 5% CO2. The supernatant was decanted, and the resulting formazan was dissolved in isopropyl alcohol with 4 mM HCl solution and was read in a UV/Vis reader at 590 nm. The results obtained were plotted, and the IC50 was obtained through linear regression.

HELA = test: MTT cytotoxic assay, Hela cells; type: cell-based; settings: Homo sapiens, cancer cell line, 48 h, read-out: Inhibitory concentration (IC50) HELA
Description: as §1

VERO = test: MTT cytotoxic assay, VERO cells; type: cell-based; settings: Chlorocebus sabaeus, normal cell line, 48 h, read-out: Inhibitory concentration (IC50) VERO
Description: as §1, with “regression. […]” for “regression.”
(§2) of the incubation, an MTT assay was performed to determine the viability of cells under treatment. Each bar in the chart indicates the percentage means and standard error of the mean. […]
(§3) healthy endothelial cells, VERO cells, and mixed culture of microglia, employing perezone (dotted) as a control. Cells from each line were incubated without control and with increased concentrations of the studied compounds during 48 h (n= 8). At the end of the incubation, an MTT assay was performed to determine the viability of cells under treatment. Each bar in the chart indicates the percentage means and […]
(§4) (1 picture or pasted object on this page, not shown here)

MCF-7 = test: MTT cytotoxic assay, MCF-7 cells; type: cell-based; settings: Homo sapiens, MCF7, cancer cell line, 48 h, read-out: Inhibitory concentration (IC50) MCF-7
Description: as §1

A-549 = test: MTT cytotoxic assay, A-549 cells; type: cell-based; settings: Homo sapiens, A549, cancer cell line, 48 h, read-out: Inhibitory concentration (IC50) A-549
Description: as §1

PARP-1 enzyme [1] = molecular target: T1, PARP-1 enzyme (Homo sapiens, UniProt P09874); design: purchased BPS Bioscience Inc. 80580; settings: previously demonstrated; read-out: IC50 (PARP-1 inhibition) of perezone and natural derivatives; cited from earlier work
T1 sequence (P09874 whole entry): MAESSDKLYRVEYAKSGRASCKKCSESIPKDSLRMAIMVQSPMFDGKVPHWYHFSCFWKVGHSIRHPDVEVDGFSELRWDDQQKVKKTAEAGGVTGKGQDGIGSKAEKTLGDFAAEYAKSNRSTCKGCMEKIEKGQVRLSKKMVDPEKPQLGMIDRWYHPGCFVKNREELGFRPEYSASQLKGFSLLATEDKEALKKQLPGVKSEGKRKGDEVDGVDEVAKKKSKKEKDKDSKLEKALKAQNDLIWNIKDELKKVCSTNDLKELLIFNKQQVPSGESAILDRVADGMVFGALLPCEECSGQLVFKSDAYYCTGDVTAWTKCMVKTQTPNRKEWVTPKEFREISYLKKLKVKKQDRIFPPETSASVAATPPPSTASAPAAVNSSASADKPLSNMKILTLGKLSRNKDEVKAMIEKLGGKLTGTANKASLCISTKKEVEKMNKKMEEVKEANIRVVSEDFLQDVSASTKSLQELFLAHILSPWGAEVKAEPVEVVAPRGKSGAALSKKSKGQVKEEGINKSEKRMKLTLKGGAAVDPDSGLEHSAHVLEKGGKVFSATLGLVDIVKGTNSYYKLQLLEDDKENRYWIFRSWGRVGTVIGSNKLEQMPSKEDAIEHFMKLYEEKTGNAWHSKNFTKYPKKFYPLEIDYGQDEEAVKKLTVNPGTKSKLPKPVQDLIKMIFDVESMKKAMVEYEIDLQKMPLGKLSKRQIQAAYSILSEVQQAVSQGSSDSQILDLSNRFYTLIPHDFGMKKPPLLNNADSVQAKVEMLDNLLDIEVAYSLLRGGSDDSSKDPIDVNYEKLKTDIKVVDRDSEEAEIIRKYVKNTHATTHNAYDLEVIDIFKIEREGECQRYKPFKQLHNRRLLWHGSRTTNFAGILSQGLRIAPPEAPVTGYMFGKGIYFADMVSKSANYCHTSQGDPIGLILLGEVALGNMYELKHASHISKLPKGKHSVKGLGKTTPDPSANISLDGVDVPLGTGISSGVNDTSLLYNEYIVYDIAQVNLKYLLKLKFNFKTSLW

Mix cells = test: MTT cytotoxic assay, mixed culture of microglia; type: cell-based; settings: normal cells, 48 h, read-out: Inhibitory concentration (IC50) Mix cells
Description: as §1, with “regression. […]” for “regression.”
as §2, §3, §4

Rat endothelial cells = test: MTT cytotoxic assay, healthy endothelial cells; type: cell-based; settings: Endothelial cell, normal cell line, 48 h, read-out: Inhibitory concentration (IC50) Rat endothelial cells
Description: as §1, with “regression. […]” for “regression.”
as §2, §3, §4

PARP-1 enzyme [2] = molecular target: T1, PARP-1 enzyme; test: PARP-1 inhibition assay (colorimetric assay kit)
Description: Absorbances were obtained at 450 nm using a UV/Vis spectrophotometer E max Precision microplate reader (Molecular Devices, San Jose, CA, USA).

SMILES | IC50 (MDA-MB-231) [µM] | IC50 (HELA) [µM] | IC50 (VERO) [µM] | IC50 (MCF-7) [µM] | IC50 (A-549) [µM] | IC50 (PARP-1 enzyme [1]) [µM] | IC50 (Mix cells) [µM] | IC50 (Rat endothelial cells) [µM] | IC50 (PARP-1 enzyme [2]) [µM]
CC(C)=CCC[C@@H](C)C1=C(O)C(=O)C(C)=CC1=O [Compound 1, perezone] | 7.8 | 42.3 | 312 | 53.2 | 144 | 181 | 63.1 | > 200 | –
C/C=C(/C)C(=O)OC1=C([C@H](C)CCC=C(C)C)C(=O)C=C(C)C1=O [Compound 2, perezone angelate] | – | – | – | – | – | 5.25 | – | – | –
CC(C)=CCC[C@@H](C)C1=C(O)C(=O)C(C)=C(O)C1=O [Compound 3, hydroxyperezone] | – | – | – | – | – | 320 | – | – | –
CC(C)=CCCC(C)C1=C(O)C(=O)C(C)=C(Sc2ccc(F)cc2CO)C1=O (centres unmarked) [Compound 9, 2-((4-fluoro-2-(hydroxymethyl)phenyl)thio)-5-hydroxy-3-methyl-6-(6-methylhept-5-en-2-yl)cyclohexa-2.5-diene-1,4-dione] | 145 | 200 | 186 | 83.2 | > 200 | – | 179 | > 200 | 0.317
CC(C)=CCCC(C)C1=C(O)C(=O)C(C)=C(Sc2ccc(CC(=O)O)cc2)C1=O (centres unmarked) [Compound 10, 2-(4-((hydroxy-2-methyl-5-(6-methylhept-5-en-2-yl)-3,6-dioxocyclohexa-1,4-dien-1-yl)thio)phenyl)acetic acid] | > 200 | > 200 | 168 | > 200 | > 200 | – | > 200 | > 200 | 0.32
